Earlier results on one substance are cited in US10111933B2, “Use of growth hormone fragments” (Metabolic Pharmaceuticals Pty Ltd, priority 2011, dated 2018).

The test system of this data set is C57Bl/6J (Ob/Ob) mouse. To be noted: cited from earlier work.

“hGH 177-191: synthetic peptide corresponding to amino acid residues 177-191 of human growth hormone sequence (LRIVQCRSVEGSCGF; UniProt P01241 203-217, looked up, fragment)”: the adipose tissue mass result is given as “reduce” and the body weight gain entry is listed as “reduce”.
